Measurements: US6696481B2, “Salt of perindopril and pharmaceutical compositions containing it” (Les Laboratoires Servier, priority 2003, dated 2004)

Tests used:
[1] = Long-term stability study of immediate-release tablets, perindopril assayed by inverse-phase HPLC; assay type: physicochemical; settings: for Percentage remaining (%): 6 months; for degradation rate: after 6 months
Protocol: Long-term stability studies carried out under very precise temperature and humidity conditions have yielded the results indicated in the Table hereinbelow.
In that study, perindopril was assayed by inverse-phase high-pressure liquid chromatography using, as eluant, an aqueous phase (comprising sodium heptane-sulphonate, and the pH of which is 2) and acetonitrile (67/33). Detection of the product was carried out by UV (215 nm).
The study was carried out using immediate-release tablets containing either 2.4 mg of the arginine salt of perindopril or 2.0 mg of the tert-butylamine salt of perindopril (each of the two tablets containing 1.7 mg of perindopril). The tablets were assayed 6 months after the start of storage of the tablets at different temperatures and different relative humidities (% R.H.).
The arginine salt used in this study is the L-arginine salt. It has been prepared according to a classical method of salification of organic chemistry.

[2] = Shelf-life of tablets / pharmaceutical compositions; assay type: physicochemical
From the text: However, in view of the intrinsic fragility of perindopril, the tert-butylamine salt has not been capable of providing a complete solution to the problems of the product's stability to heat and humidity. Indeed, for marketing, tablets of perindopril tert-butylamine salt must, in certain countries, be protected with additional packaging measures. Moreover, even for temperate-climate countries, that instability has made it impossible to obtain a shelf-life of more than 2 years for the tablets. Finally, for marketing of the tablets, they have to be marked “to be stored at a temperature less than or equal to 30 degrees”.

With `CC(C)(C)N.CCC[C@H](N[C@@H](C)C(=O)N1[C@H](C(=O)O)C[C@@H]2CCCC[C@@H]21)C(=O)OCC` [tert-Butylamine salt of perindopril] the “Percentage remaining (%)” value ([1]; 25° C., 60% R.H.) was 101.0%, the “Percentage remaining (%)” value ([1]; 30° C., 60% R.H.) was 94.4% and the “Percentage remaining (%)” value ([1]; 40° C., 75% R.H.) was 67.2%. The degradation rate [1] was “approximately 33%” and the shelf-life ([2]; tablets, temperate-climate countries) was ≤ 2 years.

With `CCC[C@H](N[C@@H](C)C(=O)N1[C@H](C(=O)O)C[C@@H]2CCCC[C@@H]21)C(=O)OCC.N=C(N)NCCC[C@H](N)C(=O)O` [Arginine salt of perindopril] the “Percentage remaining (%)” value ([1]; 25° C., 60% R.H.) was 99.5%, the “Percentage remaining (%)” value ([1]; 30° C., 60% R.H.) was 98.1% and the “Percentage remaining (%)” value ([1]; 40° C., 75% R.H.) was 98.6%. The degradation rate [1] was “practically no degradation” and the shelf-life ([2]; pharmaceutical compositions, considered from the 6-month results) was “at least three years”.
